Molecules are shown by their SMILES. Read-outs that look alike come from different tables or passages of the source.

The target of one experiment is T1, pancreatic lipase (Rattus norvegicus, UniProt P27657).
T1 construct: stimulated to release pancreatic proteins by addition of 10^-5 M carbachol; from tissue; host or cells: pancreatic lobules of fasted Charles River female rats; released pancreatic juice, centrifuged
T1 sequence (P27657 17-465): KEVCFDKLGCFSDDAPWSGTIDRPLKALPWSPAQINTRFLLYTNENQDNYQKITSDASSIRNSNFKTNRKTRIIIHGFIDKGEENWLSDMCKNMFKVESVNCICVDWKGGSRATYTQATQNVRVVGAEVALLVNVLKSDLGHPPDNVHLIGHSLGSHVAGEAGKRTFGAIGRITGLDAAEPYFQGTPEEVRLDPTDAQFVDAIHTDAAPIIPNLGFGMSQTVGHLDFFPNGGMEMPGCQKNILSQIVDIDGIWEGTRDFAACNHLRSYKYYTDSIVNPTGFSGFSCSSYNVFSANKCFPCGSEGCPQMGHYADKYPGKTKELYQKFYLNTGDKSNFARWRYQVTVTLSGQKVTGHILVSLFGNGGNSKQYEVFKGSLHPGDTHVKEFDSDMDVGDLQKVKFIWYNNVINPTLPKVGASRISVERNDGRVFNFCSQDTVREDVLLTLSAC
As to the kind of experiment: In vitro pancreatic lipase screen ([14C]-triolein assay). In kind it is biochemical. The settings on record: read-out: Pancreatic Lipase Activity I50. As for the experimental part:
The method for assaying pacreatic lipase in vitro using [^14 C]-triolein was based on the method of Garfinkel and Schotz for lipoprotein lipase, [A. S. Garfinkel and M. C. Schotz (1972). […] Glycerol tri[1-^14 C]oleate (32 mM) was emulsified in 0.2 M Tris-HCl pH 8 containing 0.15 M NaCl, bovine serum albumin (15 mg/ml) and sodium taurocholate (1.4 mM) by sonication for three, one min intervals at 80 watts. Final assay volume was 1.0 ml. The reaction was initiated by the addition of enzyme and was allowed to proceed for 10 min. The reaction was linear for up to 20 min. The liberated free fatty acids were extracted into 0.1 M KOH and quantitated in a liquid scintillation counter using 2,5-bis-2-(5-tertbutylbenzoxazolyl)-tniophene (BBOT) scintillation fluid (Yorktown Research, South Hackensack, N.J.).
Ionophores were added to the above assay as solutions in either 90% ethanol or water, pH 8; 90% ethanol had no effect on the enzyme activity assayed by either method.

In experiment [1] the test system is fatty acid synthesis in isolated hepatocytes. As to the kind of experiment: In vitro fatty acid synthesis in isolated hepatocytes. Type of experiment: cell-based, Charles River female rat. The note with it: for activity at 1 µM / activity at 5 µM / activity at 10 µM / activity at 100 µM / activity at 250 µM / activity at 500 µM / activity at 1000 µM / activity at 2000 µM: Rattus norvegicus, Hepatocyte, 1 h, pH 7.4; for activity at 1 µM: 0.001 mM; for activity at 5 µM: 0.005 mM; for activity at 10 µM: 0.010 mM; for activity at 100 µM: 0.100 mM; for activity at 250 µM: 0.250 mM; for activity at 500 µM: 0.5 mM; for activity at 2000 µM: 2.000 mM. The procedure: Hepatocytes were prepared from meal-fed Charles River female rats as described previously, [A. C. Sullivan, J. Triscari, J. G. Hamilton and J. A. Ontko (1977). Hypolipidemic activity of (-)-hydroxycitrate, Lipids, 12: 1-9]. Briefly, rats were anesthetized with Nembutal, livers were perfused in situ and hepatocytes were isolated in Krebs-Henseleit bicarbonate buffer, pH 7.4. Incubations with isolated hepatocytes were performed in triplicate at 37° C. Each incubation flask contained in a total volume of 2.1 ml, 10.5 mg cells (dry weight), 1 ml of Krebs-Henseleit buffer, pH 7.4, radioactive substrate (1 μCi [U-^14 C]alanine, 1 mCi^3 H2 O and 1 μmole alanine) and 0.3% glucose. The appropriate concentration of inhibitor was prepared in dimethylsulfoxide and added to the incubation flask. Dimethylsulfoxide had no effect on fatty acid synthesis. ^3 H2 O was used to determine the total rate of fatty acid synthesis independently of carbon precursors of acetyl CoA. [^14 C]alanine was used as an acetyl CoA precursor. Rates of fatty acid synthesis were determined as described previously, [A. C. Sullivan, J. Triscari, J. G. Hamilton and J. A. Ontko (1977). Hypolipidemic activity of (-)-hydroxycitrate, Lipids, 12: 1-9]. Data are expressed as nmoles ^3 H2 O or [^14 C]alanine converted into fatty acids per mg dry weight cells in 60 minutes.

Setting [2] is: read-out: Fatty Acid Synthesis 3H2O.
Where [3] appears, read: read-out: Fatty Acid Synthesis [14C]alanine.
Setting [4] is: 1.0 mM, read-out: Fatty Acid Synthesis 3H2O.
[5] abbreviates: 1.0 mM, read-out: Fatty Acid Synthesis [14C]alanine.

On to `CO[C@H]1CC[C@H](O[C@@H]2C[C@@H]([C@@H](C)/C=C(\C)C(=O)[C@H](C)C[C@H](C)C(=O)O)O[C@@]3(CC[C@@](C)([C@H]4CC[C@@H](C)[C@@]5(O[C@@H]([C@H]6O[C@@](O)(CO)[C@H](C)C[C@@H]6C)C[C@@H]5C)O4)O3)[C@@H]2C)O[C@@H]1C` [A-130A (Lenoremycin)], for which the IC50 on pancreatic lipase amounted to 150 µM.

For `CNc1ccc2oc(C[C@H]3O[C@@]4(CC[C@H]3C)O[C@H]([C@H](C)C(=O)c3ccc[nH]3)[C@H](C)C[C@H]4C)nc2c1C(=O)O` [Calcimycin], in experiment [1] (1.0 mM), the “Fatty Acid Synthesis 3H2O” value was 48 % of control and the “Fatty Acid Synthesis [14C]alanine” value is 0 % of control.

With `CC[C@@H](C(=O)[C@@H](C)[C@@H](O)[C@H](C)CCc1c(Cl)cc(C)c(O)c1C(=O)O)[C@H]1O[C@](CC)([C@H]2CC[C@](O)(CC)[C@H](C)O2)C[C@@H]1C` [Chlorolasalocid], the IC50 at pancreatic lipase was found to be 7000 µM.

Regarding `CCC(C(=O)O)C1CCC(C)C(C(C)C(O)C(C)C(=O)C(CC)C2OC3(C=CCC4(CCC(C)(C5CCC(O)(CC)C(C)O5)O4)O3)C(C)CC2C)O1` (stereo not drawn) [Deoxy-(0-8)-epi-17-salinomycin], the IC50 at pancreatic lipase stood at 600 µM.

For the molecule `CC[C@@H](C(=O)[C@@H](C)[C@@H](O)[C@H](C)CCc1c([N+](=O)[O-])cc(C)c(O)c1[N+](=O)[O-])[C@H]1O[C@](CC)([C@H]2CC[C@](O)(CC)[C@H](C)O2)C[C@@H]1C` [Dinitrodescarboxylasalocid,Sodium], in experiment [1] (setting [2]), the activity at 1 µM worked out at 113%, the activity at 5 µM was determined as 116%, the activity at 10 µM was 160% and the activity at 100 µM was determined as 2%. Besides, in experiment [1] (setting [2]), the activity at 250 µM turned out to be 3%, the activity at 500 µM was 3% and the activity at 2000 µM is 7%. Also, in experiment [1] (setting [3]), the activity at 1 µM is 102%, the activity at 5 µM came to 117%, the activity at 10 µM worked out at 169% and the activity at 100 µM amounted to 0%. Besides, in experiment [1] (setting [3]), the activity at 250 µM amounted to 0%, the activity at 500 µM was found to be 0% and the activity at 2000 µM turned out to be 0%. In experiment [1] (setting [4]), the activity at 1000 µM was 4%. In addition, the activity at 1000 µM in experiment [1] (setting [5]) amounted to 0%.

With `CC[C@@H](C(=O)[C@@H](C)[C@@H](O)[C@H](C)CCc1c(I)cc(C)c(O)c1C(=O)O)[C@H]1O[C@](CC)([C@H]2CC[C@](O)(CC)[C@H](C)O2)C[C@@H]1C` [Iodolasalocid], the IC50 on pancreatic lipase was 260 µM.

With `C[C@H](CCC(=O)O)C[C@H](C)C[C@H](C)C(=O)/C=C(\O)[C@H](C)C[C@H](C)C/C=C/[C@@H](C)[C@@H](O)[C@@H](C)[C@@H](O)C[C@@H]1CC[C@@](C)([C@H]2CC[C@@](C)([C@@H](C)O)O2)O1` [Ionomycin], the IC50 on pancreatic lipase turned out to be 960 µM.

On to `CCC(C(=O)C(C)C(O)C(C)CCc1ccc(C)c(O)c1C(=O)O)C1OC(CC)(C2CCC(CC)(C(C)O)O2)CC1C` (stereo not drawn) [Isolasalocid A], for which, on pancreatic lipase, the IC50 amounted to 390 µM.

`CC[C@@H](C(=O)[C@@H](C)[C@@H](O)[C@H](C)CCc1ccc(C)c(OC(=O)c2ccc(Br)cc2)c1C(=O)O)[C@H]1O[C@](CC)([C@H]2CC[C@](O)(CC)[C@H](C)O2)C[C@@H]1C` [Lasalocid 4-bromo benzoate]: the IC50 on pancreatic lipase worked out at 130 µM.

With `CC[C@@H](C(=O)[C@@H](C)[C@@H](O)[C@H](C)CCc1ccc(C)c(OC(C)=O)c1C(=O)O)[C@H]1O[C@](CC)([C@H]2CC[C@](O)(CC)[C@H](C)O2)C[C@@H]1C` [Lasalocid Acetate], on pancreatic lipase, the IC50 is 120 µM.

As for `CCCCCCC(=O)Oc1c(C)ccc(CC[C@@H](C)[C@H](O)[C@H](C)C(=O)[C@H](CC)[C@H]2O[C@](CC)([C@H]3CC[C@](O)(CC)[C@H](C)O3)C[C@@H]2C)c1C(=O)O` [Lasalocid Heptanoate], the IC50 on pancreatic lipase worked out at 220 µM.

Take `CCCCCC(=O)Oc1c(C)ccc(CC[C@@H](C)[C@H](O)[C@H](C)C(=O)[C@H](CC)[C@H]2O[C@](CC)([C@H]3CC[C@](O)(CC)[C@H](C)O3)C[C@@H]2C)c1C(=O)O` [Lasalocid Hexanoate]: the IC50 on pancreatic lipase came out at 200 µM.

`CCCCCCCC(=O)Oc1c(C)ccc(CC[C@@H](C)[C@H](O)[C@H](C)C(=O)[C@H](CC)[C@H]2O[C@](CC)([C@H]3CC[C@](O)(CC)[C@H](C)O3)C[C@@H]2C)c1C(=O)O` [Lasalocid Octanoate]: the IC50 on pancreatic lipase came to 110 µM.

With `CCCCCCCCCCCCCCCCCC(=O)Oc1c(C)ccc(CC[C@@H](C)[C@H](O)[C@H](C)C(=O)[C@H](CC)[C@H]2O[C@](CC)([C@H]3CC[C@](O)(CC)[C@H](C)O3)C[C@@H]2C)c1C(=O)O` [Lasalocid Stearate], the IC50 on pancreatic lipase came to 110 µM.

Turning to `CCC(C(=NOC)C(C)C(O)C(C)CCc1ccc(C)c(O)c1C(=O)O)C1OC(CC)(C2CCC(O)(CC)C(C)O2)CC1C` (stereo not drawn) [Lasalocid methoxime], the IC50 on pancreatic lipase was found to be 200 µM.

As for `CC[C@@H](C(=O)[C@@H](C)[C@@H](O)[C@H](C)CCc1ccc(C)c(O)c1C(=O)O)[C@H]1O[C@](CC)([C@H]2CC[C@](O)(CC)[C@H](C)O2)C[C@@H]1C` [Lasalocid,Sodium], in experiment [1] (setting [2]), the activity at 1 µM was 97%, the activity at 5 µM worked out at 74%, the activity at 10 µM is 61% and the activity at 100 µM is 4%. Moreover, in experiment [1] (setting [2]), the activity at 250 µM was found to be 6% and the activity at 500 µM stood at 7%. In experiment [1] (setting [3]), the activity at 1 µM was determined as 88%, the activity at 5 µM came to 66%, the activity at 10 µM stood at 66% and the activity at 100 µM is 0%. For the same molecule, in experiment [1] (setting [3]), the activity at 250 µM is 1% and the activity at 500 µM amounted to 3%. For the same molecule, the activity at 1000 µM in experiment [1] (setting [4]) is 11%. In experiment [1] (setting [5]), the activity at 1000 µM amounted to 0%.

Take `CC[C@@H](C(=O)[C@@H](C)[C@@H](O)[C@H](C)CCc1ccc(C)c(O)c1C(=O)O)[C@H]1O[C@](CC)([C@H]2CC[C@](O)(CC)[C@H](C)O2)C[C@@H]1C` [Lasalocid]: at pancreatic lipase, the IC50 was 100 µM.

With `CO[C@@H]1C[C@@H](C[C@H]2CC[C@H](C)[C@H]([C@@H](C)C(=O)O)O2)O[C@]2(O[C@](C)([C@H]3CC[C@@](C)([C@@H]4O[C@@H]([C@H]5O[C@@](O)(CO)[C@H](C)C[C@@H]5C)C[C@@H]4C)O3)C[C@H]2C)[C@@H]1C` [Nigericin], on pancreatic lipase, the IC50 was found to be 2500 µM.

Take `CC[C@@H](C(=O)[C@@H](C)[C@@H](O)[C@H](C)CCc1c([N+](=O)[O-])cc(C)c(O)c1C(=O)O)[C@H]1O[C@](CC)([C@H]2CC[C@](O)(CC)[C@H](C)O2)C[C@@H]1C` [Nitrolasalocid]: on pancreatic lipase, the IC50 was determined as 1320 µM.

Source of the values: US4218443A, “Polyether ionophores as antiobesity and hypotriglyceridemic agents” (Hoffmann-La Roche Inc., priority 1979, dated 1980).
